According to patent US8211945B2, “Carba-sugar amine derivative and glycolipid metabolic disorder treating agent containing the same as active ingredient” (Seikagaku Corporation, priority 2001, dated 2012):

What was measured:
[1] = molecular target: T1, human mutant β-galactosidase R482C (Homo sapiens, UniProt P16278, R482C); assay: Mutant β-galactosidase activity in model cells, 4 days culture; assay type: cell-based
T1 construct: expressed in transfected cells; host or cells: SV40-immortalized skin fibroblasts of a β-galactosidase-deficient knockout mouse
T1 sequence (P16278 29-677 R482C): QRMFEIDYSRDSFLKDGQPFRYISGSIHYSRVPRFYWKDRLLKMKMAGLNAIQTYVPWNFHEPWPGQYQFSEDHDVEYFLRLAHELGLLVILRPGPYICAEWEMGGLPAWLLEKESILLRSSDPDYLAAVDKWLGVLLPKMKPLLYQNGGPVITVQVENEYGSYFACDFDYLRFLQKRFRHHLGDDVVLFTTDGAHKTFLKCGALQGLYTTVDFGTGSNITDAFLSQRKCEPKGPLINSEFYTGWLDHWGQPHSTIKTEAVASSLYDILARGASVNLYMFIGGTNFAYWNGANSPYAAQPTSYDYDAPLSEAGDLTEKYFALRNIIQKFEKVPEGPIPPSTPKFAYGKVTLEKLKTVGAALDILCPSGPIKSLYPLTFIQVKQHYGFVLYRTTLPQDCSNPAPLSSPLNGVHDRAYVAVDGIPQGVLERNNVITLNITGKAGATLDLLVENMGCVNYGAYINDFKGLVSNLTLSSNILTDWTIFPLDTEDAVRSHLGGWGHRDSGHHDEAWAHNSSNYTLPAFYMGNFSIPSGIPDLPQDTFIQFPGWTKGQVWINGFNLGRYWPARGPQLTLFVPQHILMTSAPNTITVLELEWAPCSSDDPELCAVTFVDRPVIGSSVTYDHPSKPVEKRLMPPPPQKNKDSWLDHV

[2] = Safety observation during 1 week oral administration test in mice; conditions: about 1.4 mg per day orally
Experimental: That is, tap water containing 1 mM (about 0.28 mg/ml) of the substance 18 of the present invention was continuously administered for 1 week as drinking water to recombinant mice (3 month-old) prepared by transferring a human mutant β-galactosidase gene R201C into β-galactosidase deficient knockout mice. One week thereafter, the mice were sacrificed to excise the cerebrum, the cerebellum, the heart, the lungs, the liver, the spleen, the kidney, a muscle (femoral muscle) and plasma. Also, tail tissues were used for the purpose of verifying changes in the β-galactosidase activity in the same individual before and after the administration. Each organ was crushed under ice-cooling using a homogenizer, and then the suspension of crushed cells was centrifuged at 8,000×g for 30 minutes. Thereafter, the supernatant fraction was recovered and used as an enzyme solution. The amount of protein in this enzyme solution was measured by the Bradford method, and the β-galactosidase activity was measured. With regard to the measurement of β-galactosidase activity, the enzyme activity during 30 minutes was measured at 37° C. using 4-methylumbelliferyl-β-D-galactopyranoside as the fluorogenic substrate. […] Three animals were used in each group to calculate the mean value.

| enzyme activity, Control ([1]; transferred gene R482C, control substance 0.5 mM NB-DGJ) | SMILES | Relative ratio (×100%) ([1]; R482C, substance 18 vs control) | enzyme activity ([1]; transferred gene R482C, 0.2 μM, 4 days) | health condition [2] |
| --- | --- | --- | --- | --- |
| – | CCCCCCCCN[C@@H]1C=C(CO)[C@H](O)C(O)[C@@H]1O (stereo partly drawn) [Substance 18, N-octyl-5a-carba-α-L-arabino-hexo-5(5a)-enopyranosylamine] | 4.25 ×100% | 0.62 | health condition was markedly good |
| 0.14 | CCCCN1C[C@H](O)[C@@H](O)[C@@H](O)[C@H]1CO [Control, N-(n-butyl)-deoxygalactonojirimycin, reference compound] | – | – | – |
